Legend:
medulloblastoma cells = conditions: cited from earlier work
[1] = test system: DAOY medulloblastoma cells; assay: Cell cycle analysis by flow cytometry after release from thymidine/nocodazole mitotic block; format: cell-based, human; conditions: for cells remained in G2/M: 10 μM curcumin; for G0/G1 / G2/M / S / Sub G0/G1: DAOY released from thymidine/nocodazole block
Method: DNA was stained with 100 μg/ml propidium iodide (PI) in hypotonic citrate buffer with 20 μg/ml ribonuclease A. Stained nuclei were analyzed for DNA-PI fluorescence using an Accuri C6 flow cytometer (Accuri Cytometers Inc., Ann Arbor, Mich.). Resulting DNA distributions for sub G0/G1, G0/G1, S and G2/M phase of the cell cycle were analyzed with CFlow plus software (Accuri Cytometers Inc).
(§1) For analysis of cell cycle profiles after mitotic block, cells were synchronized with 2 mM thymidine for 24 hours. The block was released for 3 hours and cells were arrested in prometaphase with 100 nM nocodazole for 12 hours. For G1/S arrest, cells were synchronized for 18 hours with 2 mM thymidine, released for 9 hours, followed by a second thymidine arrest for 18 hours. The block was then released in the presence of DMSO or curcumin as indicated and the cells were processed as described above.
as §1, with “above. […] The data from these cell cycle studies are the mean±SEM of three independent experiments. […]” for “above.”

Cdc27 = molecular target: T1, Cdc27 (Homo sapiens, UniProt P30260); assay: Cdc27 immunoblot, molecular weight shift (crosslinking) in treated DAOY cells; format: cell-based
T1 construct: endogenous in cells; host or cells: DAOY medulloblastoma cells
Method: Cell lysates were prepared in a buffer containing 20 mM Iris (pH 7.5), 150 mM NaCl, 1 mM EDTA, 1 mM EGTA, 0.1% Triton X-100, 2.5 mM sodium pyrophosphate, 1 mM β-glycerol phosphate, 1 mM sodium vanadate, 1 mM phenylmethylsulfonyl fluoride and 5 μg/ml of antipapain, leupeptin and pepstatin (protease inhibitor cocktail). Protein concentrations were determined by the Dc protein assay (Bio-Rad, Hercules, Calif.). Equal amounts of protein were resolved by SDS-PAGE and transferred to nitrocellulose. The membranes were blocked in 5% non-fat milk in Tris-buffered saline with 0.1% Tween-20 (TBST). Primary antibodies diluted in 5% bovine serum albumin/TBST were incubated overnight at 4° C. and HRP-conjugated secondary antibodies in 5% non-fat milk/TBST for 2 hours at room temperature. Protein bands were visualized by Enhanced Chemiluminescence Plus (GE Healthcare, Piscataway, N.J.).
The cell lysates were separated by SDS-PAGE and immunoblotted for Cdc27. […] Data represent mean±SEM of three independent experiments.

DAOY cells = assay: LDH release cytotoxicity assay; format: cell-based, human; conditions: 24 hours, 0, 5, 10 and 20 μM; high phosphorylated Cdc27
Method: Lactate dehydrogenase (LDH) levels as a measure of cell death were determined using the Non-radioactive Cytotoxicity kit (Promega, Madison, Wis.) according to manufacturer's instructions. […] Cell debris was removed by centrifugation. Viable cell LDH was collected from cells lysed by freezing for 15 minutes at −70° C. followed by thawing at 37° C. The medium was collected and cleared from cell debris by centrifugation. The relative release of LDH was determined as the ratio of released LDH versus total LDH from viable cells.
Data represent mean±SEM of three independent experiments.

[2] = test system: Cdc27, cyclin B1, securin, cyclin D1, APC2, p55Cdc20; assay: Immunoblotting of DAOY cells released from mitotic block; format: cell-based, human
Method: Cell lysates were prepared in a buffer containing 20 mM Tris (pH 7.5), 150 mM NaCl, 1 mM EDTA, 1 mM EGTA, 0.1% Triton X-100, 2.5 mM sodium pyrophosphate, 1 mM β-glycerol phosphate, 1 mM sodium vanadate, 1 mM phenylmethylsulfonyl fluoride and 5 μg/ml of antipapain, leupeptin and pepstatin (protease inhibitor cocktail). Protein concentrations were determined by the Dc protein assay (Bio-Rad, Hercules, Calif.). Equal amounts of protein were resolved by SDS-PAGE and transferred to nitrocellulose. The membranes were blocked in 5% non-fat milk in Tris-buffered saline with 0.1% […] (TBST). Primary antibodies diluted in 5% bovine serum albumin/TBST were incubated overnight at 4° C. and HRP-conjugated secondary antibodies in 5% non-fat milk/TBST for 2 hours at room temperature. Protein bands were visualized by Enhanced Chemiluminescence Plus (GE Healthcare, Piscataway, N.J.).

acetylated tubulin = assay: Acetylated tubulin accumulation in cell lines; format: cell-based; conditions: cells with low levels of phosphorylated Cdc27; 20 μM curcumin for 0, 4, 8 and 24 hours
Method: Accumulation of acetylated tubulin was assayed. […] Thus, loss of Cdc27 function or p55Cdc20 association with Cdc27 may be linked to increased tubulin acetylation in curcumin-treated cells.

T1 sequence (P30260 1-830 isoform P30260-2): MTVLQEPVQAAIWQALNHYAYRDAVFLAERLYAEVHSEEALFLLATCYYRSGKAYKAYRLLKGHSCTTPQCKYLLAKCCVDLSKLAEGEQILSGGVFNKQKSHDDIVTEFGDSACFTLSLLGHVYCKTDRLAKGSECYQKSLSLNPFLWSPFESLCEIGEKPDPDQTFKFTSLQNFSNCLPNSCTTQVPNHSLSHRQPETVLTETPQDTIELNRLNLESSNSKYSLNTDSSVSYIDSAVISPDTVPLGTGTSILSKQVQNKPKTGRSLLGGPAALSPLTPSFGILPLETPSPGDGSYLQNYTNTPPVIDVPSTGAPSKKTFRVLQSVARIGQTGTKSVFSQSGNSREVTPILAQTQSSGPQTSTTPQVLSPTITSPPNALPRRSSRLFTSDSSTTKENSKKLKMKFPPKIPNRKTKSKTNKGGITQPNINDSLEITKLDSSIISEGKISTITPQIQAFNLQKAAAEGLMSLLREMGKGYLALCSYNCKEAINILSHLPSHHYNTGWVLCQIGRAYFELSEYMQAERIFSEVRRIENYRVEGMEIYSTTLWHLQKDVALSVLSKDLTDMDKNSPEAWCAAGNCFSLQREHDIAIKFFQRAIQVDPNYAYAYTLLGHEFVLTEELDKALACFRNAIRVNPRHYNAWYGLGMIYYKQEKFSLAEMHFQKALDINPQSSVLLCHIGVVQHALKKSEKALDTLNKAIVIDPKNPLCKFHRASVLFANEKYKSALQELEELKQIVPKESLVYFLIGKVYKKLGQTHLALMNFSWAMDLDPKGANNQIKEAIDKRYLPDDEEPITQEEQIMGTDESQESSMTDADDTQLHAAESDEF

induction of high molecular weight bands of Cdc27 (crosslinking) (Cdc27; DAOY, 0, 3, 6, 9 or 24 hours): induces the formation of Cdc27 dimers
high molecular weight (MW) band of Cdc27 (Cdc27; curcumin-treated DAOY cells, immunoblot): approximately double the MW of Cdc27
SMILES: COc1cc(/C=C/C(=O)CC(=O)/C=C/c2ccc(O)c(OC)c2)ccc1O [Curcumin, (E,E)-1,7-bis(4-hydroxy-3-methoxyphenyl)-1,6-heptadiene-3,5-dion]
cell cycle arrest and apoptosis (medulloblastoma cells): induces G2/M arrest and apoptosis
cells remained in G2/M ([1]; six hours after release from mitotic block): 47.7%
cells remained in G2/M ([1]; two hours after release from mitotic block): 91.5%
cells found in G2/M ([1]; 20 μM curcumin, 10 hours of release from mitotic block): 69.8%
cells in the sub-G0/G1 fraction ([1]; 20 μM curcumin, after release from mitotic block): a significant amount of cells was in the sub-G0/G1 fraction
G0/G1 ([1]; 10 μM Curcumin, 0 Hr): 7.38 ± 3.12%
G2/M ([1]; 10 μM Curcumin, 0 Hr): 70.15 ± 0.75%
S ([1]; 10 μM Curcumin, 0 Hr): 17.68 ± 4.78%
Sub G0/G1 ([1]; 10 μM Curcumin, 0 Hr): 4.80 ± 2.40%
G0/G1 ([1]; 10 μM Curcumin, 2 Hr): 16.87 ± 4.87%
G2/M ([1]; 10 μM Curcumin, 2 Hr): 64.16 ± 7.74%
S ([1]; 10 μM Curcumin, 2 Hr): 10.76 ± 0.04%
Sub G0/G1 ([1]; 10 μM Curcumin, 2 Hr): 8.21 ± 2.91%
G0/G1 ([1]; 10 μM Curcumin, 4 Hr): 35.54 ± 1.94%
G2/M ([1]; 10 μM Curcumin, 4 Hr): 46.47 ± 0.17%
S ([1]; 10 μM Curcumin, 4 Hr): 9.47 ± 2.03%
Sub G0/G1 ([1]; 10 μM Curcumin, 4 Hr): 8.57 ± 0.13%
G0/G1 ([1]; 10 μM Curcumin, 6 Hr): 43.93 ± 3.13%
G2/M ([1]; 10 μM Curcumin, 6 Hr): 33.43 ± 5.27%
S ([1]; 10 μM Curcumin, 6 Hr): 12.07 ± 0.53%
Sub G0/G1 ([1]; 10 μM Curcumin, 6 Hr): 10.57 ± 2.67%
G0/G1 ([1]; 10 μM Curcumin, 8 Hr): 47.60 ± 4.00%
G2/M ([1]; 10 μM Curcumin, 8 Hr): 26.86 ± 6.24%
S ([1]; 10 μM Curcumin, 8 Hr): 15.54 ± 0.56%
Sub G0/G1 ([1]; 10 μM Curcumin, 8 Hr): 9.99 ± 2.79%
G0/G1 ([1]; 10 μM Curcumin, 10 Hr): 48.68 ± 8.18%
G2/M ([1]; 10 μM Curcumin, 10 Hr): 22.65 ± 11.35%
S ([1]; 10 μM Curcumin, 10 Hr): 19.88 ± 0.32%
Sub G0/G1 ([1]; 10 μM Curcumin, 10 Hr): 8.85 ± 3.45%
G0/G1 ([1]; 20 μM Curcumin, 0 Hr): 7.38 ± 3.12%
G2/M ([1]; 20 μM Curcumin, 0 Hr): 70.15 ± 0.75%
S ([1]; 20 μM Curcumin, 0 Hr): 17.68 ± 4.76%
Sub G0/G1 ([1]; 20 μM Curcumin, 0 Hr): 4.80 ± 2.40%
G0/G1 ([1]; 20 μM Curcumin, 2 Hr): 11.51 ± 2.81%
G2/M ([1]; 20 μM Curcumin, 2 Hr): 67.21 ± 5.39%
S ([1]; 20 μM Curcumin, 2 Hr): 13.86 ± 0.34%
Sub G0/G1 ([1]; 20 μM Curcumin, 2 Hr): 7.42 ± 2.92%
G0/G1 ([1]; 20 μM Curcumin, 4 Hr): 16.77 ± 1.63%
G2/M ([1]; 20 μM Curcumin, 4 Hr): 65.00 ± 1.30%
S ([1]; 20 μM Curcumin, 4 Hr): 10.77 ± 1.57%
Sub G0/G1 ([1]; 20 μM Curcumin, 4 Hr): 7.46 ± 1.36%
G0/G1 ([1]; 20 μM Curcumin, 6 Hr): 22.09 ± 0.81%
G2/M ([1]; 20 μM Curcumin, 6 Hr): 52.27 ± 5.63%
S ([1]; 20 μM Curcumin, 6 Hr): 14.02 ± 2.02%
Sub G0/G1 ([1]; 20 μM Curcumin, 6 Hr): 11.67 ± 4.37%
G0/G1 ([1]; 20 μM Curcumin, 8 Hr): 24.20 ± 0.30%
G2/M ([1]; 20 μM Curcumin, 8 Hr): 51.55 ± 9.55%
S ([1]; 20 μM Curcumin, 8 Hr): 13.45 ± 3.65%
Sub G0/G1 ([1]; 20 μM Curcumin, 8 Hr): 10.85 ± 5.55%
G0/G1 ([1]; 20 μM Curcumin, 10 Hr): 25.15 ± 0.85%
G2/M ([1]; 20 μM Curcumin, 10 Hr): 48.95 ± 10.95%
S ([1]; 20 μM Curcumin, 10 Hr): 14.22 ± 4.02%
Sub G0/G1 ([1]; 20 μM Curcumin, 10 Hr): 11.67 ± 6.07%
sensitivity to curcumin-induced apoptosis (LDH release) (DAOY cells): most sensitive
dephosphorylation of Cdc27 over time after release of the mitotic block ([2]; 20 and 40 μM curcumin vs DMSO): not observed
decreases in the cyclin B1 and securin levels after release of the mitotic block ([2]; 20 and 40 μM curcumin vs control): not found
levels of APC2, p55Cdc20 or cyclin D1 ([2]; control vs curcumin-treated cells): no significant differences
curcumin-induced tubulin acetylation (acetylated tubulin): reduced
